Laboratory results from article PMC5937091, “Efficacy of Alpha Glucosidase Inhibitor from Marine Actinobacterium in the Control of Postprandial Hyperglycaemia in Streptozotocin (STZ) Induced Diabetic Male Albino Wister Rats” (Iranian Journal of Pharmaceutical Research : IJPR, 2018).
Values after ≈ are worked out from the molar mass of the structure shown.

Biological target: T1, mammalian α-glucosidase (rat α-glucosidase; rat-intestinal acetone powder)
T1 construct: gene Si; crude soluble supernatant of sonicated rat-intestinal acetone powder (Sigma-Aldrich); native, not purified
Test: colorimetric inhibition assay, absorbance at […] nm
Assay type: biochemical
Conditions: substrate p-nitrophenyl α-D-glucopyranoside, phosphate buffer pH 6.8, 37 °C (as in screening protocol); mode printed both as competitive and as non-competitive

- IC50: 32.08 µg/mL (≈ 105 µM)
Structure (SMILES): CN1C(=O)C(CCl)N(C(=O)OC(C)(C)C)C1C(C)(C)C (stereo not shown) [2-t-butyl-5-chloromethyl-3-methyl-4-oxoimidazolidine-1-carboxylic acid, t-butyl ester]
